Experimental data published in patent publication US12474337B2, “Therapeutic agent for autoimmune diseases or allergy, and method for screening for the therapeutic agent” (OSAKA UNIVERSITY, priority 2009, dated 2025).

Test system: dendritic cells
Test: Transwell overlaid with type 1 collagen or HMVEC-dLy monolayer, chemotaxis to CCL21 with and without Sema3A, after myosin II or Rho kinase inhibition
Assay type: cell-based, mouse
Protocol: An uncoated Transwell (pore diameter 5.0 μm; Corning) was placed in a 24-well plate containing CCL21 or CSCL12 in 0.6 ml of RPM1 containing 0.1% BSA. 1×10^5 dendritic cells in 0.1 ml of solution were added to the upper well of the Transwell, and incubated for 3 hours at 37° C. The cells in the […] chamber were ablated for 5 minutes with 5 mM PBS-EDTA, and counted by Guava. Fibronectin ([…]), type 1 collagen (3.0 mg/ml) or lymphatic endothelial cells were laid over the membrane of the top chamber for purposes of in vitro migration assay. In brief, 2×10^4 SVEC4-10 or HMVEC-dLy cells were seeded on the top or bottom surface of a Transwell insert coated with 2 μg/ml of fibronectin. […]
BMDC cells that had been treated for 30 minutes at 37° C. with 50 μM of blebbistatin or 30 μM of Y-27632 were applied to the upper chamber of a Transwell (pore diameter: 5 μm) overlaid with 3 mg/ml of type 1 collagen (left panel) and an HMVEC-dLy monolayer (right panel), and chemotaxis in response to CCL21 was measured in the […] chamber with and without Sema3A. The overall difference between groups was evaluated by one-way ANOVA. […]
A Transwell test was performed by the following methods. […] The cells in the lower chamber were ablated for 5 minutes by treatment with 5 mM of PBS-EDTA, and counted by Guava ViaCount assay on a Guava PCA system. […]

Compound | effect of Sema3A on dendritic cell trafficking after inhibitor treatment (DC cells treated 30 minutes at 37° C. with 50 μM blebbistatin) | effect of Sema3A on dendritic cell trafficking after inhibitor treatment (DC cells treated 30 minutes at 37° C. with 30 μM Y-27632)
Cc1ccc2c(c1)C(=O)C1(O)CCN(c3ccccc3)C1=N2 (centres unmarked) [blebbistatin] | disappeared | 
C[C@@H](N)[C@H]1CC[C@H](C(=O)Nc2ccncc2)CC1 [Y-27632] |  | disappeared
